Measured values: patent publication US12115178B2, “Acylated active agents and methods of their use for the treatment of autoimmune disorders” (Flagship Pioneering Innovations V, Inc., priority 2018, dated 2024)

What was measured:
Assay type in all cases: in vitro ADME
[1] = Assay 1. Stability in Simulated Gastric Fluid (SGF)
How it was run: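 Degradation rate from LC/MS of acetonitrile-quenched aliquots (T0, then regular intervals). Fresh SGF (pH 1.6 NaCl, FaSSIF powder, pepsin 0.1 mg/mL) held compound at 1 μM final, 37° C; 1 mM DMSO stock.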

[2] = Assay 2. Stability in Simulated Intestinal Fluid (SIF); settings: SIF pH 6.7 with pancreatin, 1 μM, 37° C.
How it was run: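 Degradation rates came from LC/MS of acetonitrile-quenched samples drawn at intervals, starting at T0. The medium was freshly made pH 6.7 FaSSIF containing pancreatin, and test compound was present at 1 µM while being shaken at 37 °C.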

[3] = Assay 3. In vitro Colonic Material Stability Assay; settings: colonic material slurry, anaerobic, 1 or 10 μM
[4] = SGF pH 1.6 with pepsin, 1 μM, 37° C.

Row | Compound | Assay 1 (SGF) (% Remaining @ 1 hour) [1, 4] | Assay 2 (SIF) (% @ Remaining 4 hours) [2] | Assay 3 (% Remaining at 24 h) [3] | Assay 1 (SGF) (% Remaining @ 1 hour) ([1]; Run 1, SGF) | Assay 1 (SGF) (% Remaining @ 1 hour) ([1]; Run 2, SGF)
1 | CCC(=O)O[C@@H]1[C@@H](OC(=O)CC)[C@H](C)O[C@@H](OC(=O)Cc2c[nH]c3ccccc23)[C@@H]1OC(=O)CC [Compound 115, (2S,3R,4R,5S,6S)-2-{[2-(1H-indol-3-yl)acetyl]oxy}-6-methyl-4,5-bis(propanoyloxy)oxan-3-yl propanoate] | C (>75% of the tested compound remaining) | A (<25% of the tested compound remaining) | A (<25% of the tested compound remaining) | – | –
2 | CCCC(=O)Oc1cc(OC(=O)CCC)c2c(c1)O[C@H](c1ccc(OC(=O)CCC)c(OC(=O)CCC)c1)[C@H](OC(=O)CCC)C2 [Compound 193, (2R,3R)-2-[3,4-bis(butanoyloxy)phenyl]-5,7-bis(butanoyloxy)-3,4-dihydro-2H-1-benzopyran-3-yl butanoate] | C (>75% of the tested compound remaining) | A (<25% of the tested compound remaining) | A (<25% of the tested compound remaining) | – | –
3 | CCCC(=O)O[C@H]1[C@@H](Oc2ccc(N)cc2C(=O)O)OC[C@@H](OC(=O)CCC)[C@H]1OC(=O)CCC [Compound 21, 5-amino-2-(((2R,3R,4R,5R)-3,4,5-tris(butyryloxy)tetrahydro-2H-pyran-2-yl)oxy)benzoic acid] | C (>75% of the tested compound remaining) | C (>75% of the tested compound remaining) | B (25-75% of the tested compound remaining) | – | –
4 | CCC(=O)OC[C@H]1O[C@H](OC(=O)CCc2c[nH]c3ccccc23)[C@H](OC(=O)CC)[C@@H](OC(=O)CC)[C@@H]1OC(=O)CC [Compound 109, [(2R,3R,4S,5R,6R)-6-{[3-(1H-indol-3-yl)propanoyl]oxy}-3,4,5-tris(propanoyloxy)oxan-2-yl]methyl propanoate] | C (>75% of the tested compound remaining) | A (<25% of the tested compound remaining) | A (<25% of the tested compound remaining) | – | –
5 | CCC(=O)O[C@H]1O[C@H](C(=O)O)[C@@H](OC(=O)CC)[C@H](OC(=O)CC)[C@H]1OC(=O)CC [Compound 46, (2S,3S,4S,5R,6R)-3,4,5,6-tetrakis(propanoyloxy)oxane-2-carboxylic acid] | C (>75% of the tested compound remaining) | A (<25% of the tested compound remaining) | A (<25% of the tested compound remaining) | – | –
6 | O=C(CCc1c[nH]c2ccccc12)O[C@H]1OC[C@H](OC(=O)CCc2c[nH]c3ccccc23)[C@H](OC(=O)CCc2c[nH]c3ccccc23)[C@H]1OC(=O)CCc1c[nH]c2ccccc12 [Compound 149, (2R,3R,4S,5S)-3,4,5-tris({[3-(1H-indol-3-yl)propanoyl]oxy})oxan-2-yl 3-(1H-indol-3-yl)propanoate] | B (25-75% of the tested compound remaining) | A (<25% of the tested compound remaining) | A (<25% of the tested compound remaining) | – | –
7 | CCC(=O)O[C@H]1[C@@H](OC(=O)CCc2c[nH]c3ccccc23)OC[C@@H](OC(=O)CC)[C@H]1OC(=O)CC [Compound 94, (2R,3R,4R,5R)-3,4,5-tris(propanoyloxy)oxan-2-yl 3-(1H-indol-3-yl)propanoate] | C (>75% of the tested compound remaining) | A (<25% of the tested compound remaining) | A (<25% of the tested compound remaining) | – | –
8 | CCC(=O)O[C@@H]1O[C@@H](C)[C@H](OC(=O)CC)[C@@H](OC(=O)CC)[C@H]1OC(=O)CC [Compound 78, (2S,3R,4R,5S,6S)-6-methyl-3,4,5-tris(propanoyloxy)oxan-2-yl propanoate] | B (25-75% of the tested compound remaining) | A (<25% of the tested compound remaining) | A (<25% of the tested compound remaining) | – | –
9 | CCC(=O)O[C@H]1[C@H](OC(=O)Cc2c[nH]c3ccccc23)OC[C@@H](OC(=O)CC)[C@H]1OC(=O)CC [Compound 106, (2S,3R,4R,5R)-2-{[2-(1H-indol-3-yl)acetyl]oxy}-4,5-bis(propanoyloxy)oxan-3-yl propanoate] | C (>75% of the tested compound remaining) | A (<25% of the tested compound remaining) | A (<25% of the tested compound remaining) | – | –
10 | CCC(=O)Oc1ccc(-c2oc3cc(OC(=O)CC)cc(OC(=O)CC)c3c(=O)c2OC(=O)CC)cc1 [Compound 167, 4-[4-oxo-3,5,7-tris(propanoyloxy)-4H-chromen-2-yl]phenyl propanoate] | B (25-75% of the tested compound remaining) | A (<25% of the tested compound remaining) | A (<25% of the tested compound remaining) | – | –
11 | CCC(=O)Oc1cc(OC(=O)CC)c2c(=O)c(O)c(-c3ccc(OC(=O)CC)c(OC(=O)CC)c3)oc2c1 [Compound 165, 2-[3,4-bis(propanoyloxy)phenyl]-3-hydroxy-4-oxo-7-(propanoyloxy)-4H-chromen-5-yl propanoate] | B (25-75% of the tested compound remaining) | A (<25% of the tested compound remaining) | A (<25% of the tested compound remaining) | – | –
12 | CCC(=O)O[C@@H]1[C@@H](OC(=O)CC)[C@@H](OC(=O)CCc2c[nH]c3ccccc23)OC[C@@H]1OC(=O)CC [Compound 126, (2R,3R,4S,5S)-3,4,5-tris(propanoyloxy)oxan-2-yl 3-(1H-indol-3-yl)propanoate] | C (>75% of the tested compound remaining) | A (<25% of the tested compound remaining) | A (<25% of the tested compound remaining) | – | –
13 | CCCC(=O)O[C@H]1[C@H](OC(=O)CCC)[C@H](OC(=O)CCc2c[nH]c3ccccc23)O[C@@H](C)[C@H]1OC(=O)CCC [Compound 84, (2S,3S,4R,5R,6S)-4,5-bis(butanoyloxy)-2-{[3-(1H-indol-3-yl)propanoyl]oxy}-6-methyloxan-3-yl butanoate] | C (>75% of the tested compound remaining) | A (<25% of the tested compound remaining) | A (<25% of the tested compound remaining) | – | –
14 | O=C(CCc1c[nH]c2ccccc12)O[C@@H]1O[C@H](C(=O)O)[C@@H](OC(=O)CCc2c[nH]c3ccccc23)[C@H](OC(=O)CCc2c[nH]c3ccccc23)[C@H]1OC(=O)CCc1c[nH]c2ccccc12 [Compound 49, (2S,3S,4S,5R,6S)-3,4,5,6-tetrakis({[3-(1H-indol-3-yl)propanoyl]oxy})oxane-2-carboxylic acid] | – | A (<25% of the tested compound remaining) | A (<25% of the tested compound remaining) | B (25-75% of the tested compound remaining) | C (>75% of the tested compound remaining)
15 | CCC(=O)O[C@H]1[C@H](OC(=O)CCc2c[nH]c3ccccc23)OC[C@@H](OC(=O)CC)[C@H]1OC(=O)CC [Compound 98, (2S,3R,4R,5R)-3,4,5-tris(propanoyloxy)oxan-2-yl 3-(1H-indol-3-yl)propanoate] | B (25-75% of the tested compound remaining) | A (<25% of the tested compound remaining) | A (<25% of the tested compound remaining) | – | –
16 | CCC(=O)OC[C@H]1O[C@H](OC(=O)Cc2c[nH]c3ccccc23)[C@H](OC(=O)CC)[C@@H](OC(=O)CC)[C@@H]1OC(=O)CC [Compound 114, [(2R,3R,4S,5R,6R)-6-{[2-(1H-indol-3-yl)acetyl]oxy}-3,4,5-tris(propanoyloxy)oxan-2-yl]methyl propanoate] | C (>75% of the tested compound remaining) | A (<25% of the tested compound remaining) | A (<25% of the tested compound remaining) | – | –
17 | CCC(=O)O[C@H]1OC[C@@H](OC(=O)CC)[C@@H](OC(=O)CC)[C@H]1OC(=O)CC [Compound 101, (2R,3R,4R,5R)-3,4,5-tris(propanoyloxy)oxan-2-yl propanoate] | C (>75% of the tested compound remaining) | A (<25% of the tested compound remaining) | A (<25% of the tested compound remaining) | – | –
18 | CCCC(=O)O[C@@H]1[C@@H](OC(=O)CCC)[C@@H](OC)OC[C@@H]1OC(=O)CCC [Compound 52, (2S,3R,4S,5S)-3,5-bis(butanoyloxy)-2-methoxyoxan-4-yl butanoate] | B (25-75% of the tested compound remaining) | B (25-75% of the tested compound remaining) | B (25-75% of the tested compound remaining) | – | –
19 | C[C@@H]1OC(O)[C@@H](OC(=O)CCc2c[nH]c3ccccc23)[C@H](OC(=O)CCc2c[nH]c3ccccc23)[C@@H]1OC(=O)CCc1c[nH]c2ccccc12 (stereo partly drawn) [Compound 62, (2S,3R,4R,5S)-6-hydroxy-4,5-bis({[3-(1H-indol-3-yl)propanoyl]oxy})-2-methyloxan-3-yl 3-(1H-indol-3-yl)propanoate] | C (>75% of the tested compound remaining) | A (<25% of the tested compound remaining) | C (>75% of the tested compound remaining) | – | –
